According to patent US6599754B2, “Biphasic reaction vessel and methods of use” (University of Rochester, priority 2000, dated 2003):

Tests used:
[1] = Cellulose membrane permeability and partitioning between methylene chloride and water, analysed by LC/MS; assay type: physicochemical; details: for transport across cellulose membrane from organic to aqueous layer: LC/MS vial covered with cellulose membrane, methylene chloride / water; for solvent preference from relative LC/MS intensities of the two layers: methylene chloride in LC/MS vial, cellulose membrane, immersed in deionized water for twenty-four hours
Method: One of the key components to this system is the physical separation between the organic chemistry and the biomolecular receptor. As a simple test, starting material was dissolved in methylene chloride at reaction concentration in an LC/MS vial, the vial covered with a cellulose membrane and immersed in glass-distilled, deionized water for twenty-four hours (FIGS. 10A-B). The experiment was analyzed by LC/MS.
Furthermore, enough of the compound is present to detect by LC/MS without having to concentrate the sample.

[2] = system: trypsin; assay: Dynamic library selection experiment against trypsin in the biphasic vessel (LC-MS of extracted ions); details: 121 compound library, trypsin 43 μM and 257 μM vs trypsin free control, 18 hours incubation; not verified by binding or inhibition constant
Method: Selection experiments: 1,4-diacetoxycyclopent-2-ene, methoxyphenylacetic acid, hydrocinnamic acid, isovaleric acid, 4-pentynoic acid, cyclopentane carboxylic acid, cis-pinonic acid, tetrahydro-2-furoic acid, 2 -phenylpropionic acid, 2-cyclopentene-1-acetic acid, (−)-methoxyacetic acid and triethyl phosphite were weighed in 4 mL vials in the open atmosphere. Palladium tetrakistriphenylphosphine was added to the vial containing triethylphosphite under a nitrogen atmosphere inside a glove box. The reagents were diluted with freshly distilled methylene chloride under the nitrogen atmosphere. Stock solutions of 1,4 -diacetoxycyclopent-2-ene (2 M), methoxyphenylacetic acid (1.8 M), hydrocinnamic acid (1.8 M), isovaleric acid (1.8 M), 4-pentynoic acid (1.8 M), cyclopentane carboxylic acid (1.8 M), cis-pinonic acid (1.8 M), tetrahydro-2-furoic acid (1.8 M), 2-phenylpropionic acid (1.8 M), 2-cyclopentene-1-acetic acid (1.8 M), (−)-methoxyacetic acid (1.8 M) and palladium tetrakistriphenylphosphine (90 mM) with triethyl phosphite (360 mM) were prepared. An aliquot (611 μL) was removed from each of the ten acid stock solutions, added to a pear shaped flask, and evaporated to dryness. […]
Organic and aqueous samples were analyzed by electrospray LC-MS in positive ionization mode using an acetonitrile: water 1% trifluoroacetic acid gradient elution (30% CH3CN—90%). […]

SMILES	transport across cellulose membrane from organic to aqueous layer [1]	solvent preference from relative LC/MS intensities of the two layers [1]	correlation of amount of compound (ion intensity) with presence of trypsin [2]
CC(=O)OC1C=CC(OC(C)=O)C1 (stereo not drawn) [1,4-diacetoxycyclopent-2-ene]	sufficient ability to undergo membrane transport	organic preference	–
CC(=O)OC1C=CC(OC(=O)CC2C=CCC2)C1 (stereo not drawn) [1-acetoxy-4-(2-cyclopentene-1-acetoxy)cyclopent-2-ene]	–	–	strong correlation
COC(C(=O)OC1C=CC(OC(C)=O)C1)c1ccccc1 (stereo not drawn) [1-acetoxy-4-(methoxyphenylacetoxy)cyclopent-2-ene]	present at thirteen minutes in the aqueous layer	–	–
COC(C(=O)O)c1ccccc1 (stereo not drawn) [methoxyphenylacetic acid]	sufficient ability to undergo membrane transport	aqueous preference	–
